The values below come from patent US20070134709A1, “Usages of MTHFR gene polymorphisms in predicting homocysteine level, disease risk, and treatment effects and related methods and kit” (priority 2005, published 2007).

The subject of data set [1] is hypertensive patients. Particulars: oral, single daily fixed dosage of 10 mg; 444 hypertensive patients; cited from earlier work.
The next data set deals with hypertensive subjects. Description: Change in plasma Hcy level after 57 days' treatment, hypertensive subjects grouped by MTHFR C677T genotype. The format is in vivo, human. Conditions: for Significant change in Hcy (number of subjects): (day 57 − day 0)/day 0 ≧10%; for Non-significant change in Hcy (number of subjects): relative change below 10; for β(SE) of change in Hcy level: multiple linear regression adjusted for sex, age, BMI, smoking, drinking, baseline Hcy; for Mean change in Hcy level: plasma, Day 57 − Day 0. As to the method:
We conducted a clinical epidemiology study, in which we classified hypertensive subjects into 677CC, 677CT, and 677TT groups based on the genotypes of MTHFR C677T polymorphism. Each subject was treated with Enalapril alone or combined with folate for 57 consecutive days. Pre-treatment and post-treatment plasma Hcy level, blood pressure (SBP/DBP), and urine albumin were measured. The major findings are summarized as follow. […]

For data set [2] the following is noted: cited from earlier work.
For data set [3], the system named is hypertensive patients. As to the kind of experiment: Change in plasma Hcy level after 57 days' treatment, hypertensive patients grouped by MTHFR A1298C genotype. It is filed as in vivo, human. Conditions: for β(SE) of change in Hcy level: adjusted for sex, age, BMI, smoking, drinking, baseline Hcy; for Mean change in Hcy level: plasma, Day 57 − Day 0. The protocol: In our clinical epidemiology study, we classified hypertensive patients into 1298AA, 1298AC, and 1298CC groups based on the genotype of MTHFR A1298C polymorphism. Each subject was treated with ACEI medicine alone or combined with folate for 57 consecutive days. Pre-treatment and post-treatment plasma Hcy level, blood pressure (SBP/DBP), and urine albumin were measured.

The next data set deals with subjects. As to the kind of experiment: Liver injury as change in liver enzymes (ALT, AST) after 57 days' treatment, subjects grouped by MTHFR C677T genotype. The format is in vivo, human. Conditions: for Significant change in ALT (number of subjects): (ALT day 57-ALT day 0)/ALT day 0>15%. The protocol: In our clinical epidemiology study, we classified subjects into 677CC, 677CT, and 677TT groups based on the MTHFR C677T genotype. Each subject was treated with ENAZEPRIL alone or combined with folate for 57 consecutive days. Pre-treatment and post-treatment liver enzymes (ALT and AST) were measured. The MTHFR C677T polymorphism can affect the degree of liver injury induced by ACEI medicine combined with folate. […] Remarkably, given the combination therapy, Subjects with MTHFR 677CC genotype tend to have greater increase in ALT and AST, but subjects with MTHFR 677TT genotype tend to have less increase in ALT and AST. Subjects with MTHFR 677CT genotype fell in-between.
In our clinical epidemiology study, we classified subjects into 677CC, 677CT, and 677TT groups based on the MTHFR C677T genotype. Each subject was treated with ENAZEPRIL alone or combined with folate for 57 consecutive days. Pre-treatment and post-treatment liver enzymes (ALT and AST) were measured.

The target in data set [4] is angiotensin converting enzyme I (Homo sapiens, UniProt P12821). Particulars: cited from earlier work.
Setting [5] is: Table 19, 677CC, day 57 minus day 0.
The mark [6] stands for this setting: Table 19, 677CT, day 57 minus day 0.
Where [7] appears, read: Table 19, 677TT, day 57 minus day 0.

Sequence of angiotensin converting enzyme I (P12821 30-1306): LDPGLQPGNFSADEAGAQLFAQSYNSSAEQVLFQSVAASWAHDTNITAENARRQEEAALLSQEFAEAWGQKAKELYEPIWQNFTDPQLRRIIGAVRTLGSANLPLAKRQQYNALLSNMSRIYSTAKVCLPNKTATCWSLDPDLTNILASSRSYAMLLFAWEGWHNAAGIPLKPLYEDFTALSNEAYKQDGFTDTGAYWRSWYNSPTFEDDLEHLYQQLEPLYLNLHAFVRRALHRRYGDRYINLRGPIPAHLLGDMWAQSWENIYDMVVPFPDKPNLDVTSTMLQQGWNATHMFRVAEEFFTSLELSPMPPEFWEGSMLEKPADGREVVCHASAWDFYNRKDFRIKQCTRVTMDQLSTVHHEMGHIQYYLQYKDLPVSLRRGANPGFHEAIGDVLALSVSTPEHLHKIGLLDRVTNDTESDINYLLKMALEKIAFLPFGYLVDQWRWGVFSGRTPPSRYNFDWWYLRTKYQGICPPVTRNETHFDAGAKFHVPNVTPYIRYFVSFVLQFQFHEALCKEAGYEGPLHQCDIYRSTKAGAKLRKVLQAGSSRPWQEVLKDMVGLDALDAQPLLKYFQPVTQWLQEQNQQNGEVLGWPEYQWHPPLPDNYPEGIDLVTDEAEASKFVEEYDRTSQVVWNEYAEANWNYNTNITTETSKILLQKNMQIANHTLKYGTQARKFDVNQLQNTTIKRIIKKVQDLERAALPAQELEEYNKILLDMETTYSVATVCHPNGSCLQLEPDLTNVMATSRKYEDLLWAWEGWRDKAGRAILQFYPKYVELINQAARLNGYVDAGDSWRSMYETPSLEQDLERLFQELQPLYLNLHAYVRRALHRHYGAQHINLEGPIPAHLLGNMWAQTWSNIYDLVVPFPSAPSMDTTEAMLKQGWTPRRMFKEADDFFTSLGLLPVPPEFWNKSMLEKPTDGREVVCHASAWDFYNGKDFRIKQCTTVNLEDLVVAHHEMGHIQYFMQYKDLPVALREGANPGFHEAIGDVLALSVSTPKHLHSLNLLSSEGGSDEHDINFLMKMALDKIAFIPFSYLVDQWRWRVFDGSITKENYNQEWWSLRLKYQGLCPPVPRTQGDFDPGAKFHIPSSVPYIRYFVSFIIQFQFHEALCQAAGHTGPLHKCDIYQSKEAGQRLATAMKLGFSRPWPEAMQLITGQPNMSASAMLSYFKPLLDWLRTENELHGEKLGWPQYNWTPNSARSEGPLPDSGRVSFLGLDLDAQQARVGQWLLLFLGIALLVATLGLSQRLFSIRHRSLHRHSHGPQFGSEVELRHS

As to `CCOC(=O)[C@H](CCc1ccccc1)N[C@H]1CCc2ccccc2N(CC(=O)O)C1=O` [Benazepril], the “Change in diastolic blood pressure, TT genotype vs CT or CC genotype” value in the data set with hypertensive patients [1] was “significantly higher”.
As to `CCOC(=O)[C@H](CCc1ccccc1)N[C@@H](C)C(=O)N1CCC[C@H]1C(=O)O` [ENALAPRIL, Enalapril], the “Significant change in Hcy (number of subjects)” value with hypertensive subjects (677CC + CT) is 12; with hypertensive subjects (677TT), 10; with hypertensive subjects (Total, all genotypes) it was 22. The “Non-significant change in Hcy (number of subjects)” value turned out to be 39 in the data set with hypertensive subjects (677CC + CT); 16 in the data set with hypertensive subjects (677TT); 55 in the data set on hypertensive subjects (Total, all genotypes). Also, the “Subjects with significant change in Hcy level” value was found to be 23.3% in the data set with hypertensive subjects (677CT or CC), 38.5% with hypertensive subjects (677TT genotype) and 28.6% in the data set on hypertensive subjects (overall (22/77)). For the same compound, the results for the “β(SE) of change in Hcy level” value in the data set on hypertensive subjects (677CT vs 677CC) and in the data set on hypertensive subjects (677TT vs 677CC) were 0.7 (1.3) and 3.9 (1.3), respectively. Also, in the data set on hypertensive subjects (Enalapril alone for 57 days), the “Plasma Hcy level after treatment” value was “increased level of plasma Hcy”. Moreover, the “Mean change in Hcy level” value with hypertensive subjects (MTHFR 677CC) was -0.5 µmol/L; in the data set on hypertensive subjects (MTHFR 677CT), 1.2 µmol/L; with hypertensive subjects (MTHFR 677TT) it was 2.7 µmol/L. Besides, the Half-time in data set [2] (in vivo) is 11 h. In addition, the “Duration of blood pressure lowering effect” value in data set [2] (regular dosage) is listed as “more than 24 hours”.
`CCOC(=O)[C@H](CCc1ccccc1)N[C@@H](C)C(=O)N1CCC[C@H]1C(=O)O` [ENAZEPRIL]: the “β(SE) of change in Hcy level” value in the data set with hypertensive patients [3] (1298AA vs 1298CC) is listed as 2.3 (1.8); with hypertensive patients [3] (1298AC vs 1298CC), 0.2 (1.5). Also, the “Plasma Hcy level after treatment” value in the data set on hypertensive patients [3] (ENAZEPRIL alone for 57 days) is listed as “significantly increased level of plasma Hcy”. For the same compound, the “Mean change in Hcy level” value in the data set on hypertensive patients [3] (MTHFR 1298AA) is 3.0 µmol/L; in the data set with hypertensive patients [3] (MTHFR 1298AC) it was 1.2 µmol/L; in the data set on hypertensive patients [3] (MTHFR 1298CC), 1.1 µmol/L. Also, the “Insignificant change in ALT (number of subjects)” value with subjects (677CC) came to 20; with subjects (677TT), 34; in the data set with subjects (Total (CC and TT)), 54. Also, the “Significant change in ALT (number of subjects)” value in the data set on subjects (677CC) is on record as 32; in the data set with subjects (677TT), 14; in the data set on subjects (Total (CC and TT)), 46. Moreover, the “Mean change in ALT” value in the data set with subjects (setting [5]) came to 13.8 U/L; in the data set on subjects (setting [6]), 10.1 U/L; in the data set on subjects (setting [7]), 7.3 U/L; with subjects (Table 20, 677CC, Day57 − Day0) it was 17.92 U/L; with subjects (Table 20, 677CT, Day57 − Day0), 10.15 U/L; with subjects (Table 20, 677TT, Day57 − Day0), 9.4 U/L. For the same compound, the “Mean change in AST” value in the data set with subjects (setting [5]) stood at 7.1 U/L; in the data set with subjects (setting [6]), 5.2 U/L; in the data set with subjects (setting [7]) it was 0.3 U/L; in the data set on subjects (Table 20, 677CC, Day57 − Day0) it was 4.95 U/L; with subjects (Table 20, 677CT, Day57 − Day0) it was 5.81 U/L; with subjects (Table 20, 677TT, Day57 − Day0), 0.08 U/L. In addition, the “Increase in ALT and AST” value with subjects (subjects with MTHFR 677CC genotype, Enazepril alone) is “greatest increase in ALT and AST”.
As for `C[C@H](N[C@@H](CCc1ccccc1)C(=O)O)C(=O)N1CCC[C@H]1C(=O)O` [Enalaprilat], the “Inhibition of angiotensin converting enzyme I compared with enalapril” value in data set [4] is recorded as “powerful effect on inhibiting angiotensin converting enzyme I than enalapril”.
